Measured values as given in patent US11045519B2, “Arginine-rich polypeptide compositions and methods of using same” (UNM Rainforest Innovations, priority 2017, dated 2021).

Legend:
HPV16 PsVs [1] = assay: Co-localization of HPV16 PsV with endosomal marker CD63 in HaCaT cells (confocal microscopy); type: cell-based; conditions: 1 μM added 1 h after PsVs, further 7 h
Method: FIG. 9. PolyR inhibits HPV16 L2 protein cleavage by furin and induces accumulation of internalized virus particles in late endosomal fraction. (A) Equal amount of HPV16 diluted in 50 μl furin assay buffer (1 mM CaCl2), 100 mM HEPES, 0.5% Triton X-100, 1 mM β-mercaptoethanol) was loaded into six tubes, and subsequently incubated for two hours at 30° C. without any inhibitor, in the presence of 1.3 μM furin inhibitor1 (Merck Millipore Corp., Burlington, Mass.), or 1 μM polyR. Samples were mixed with SDS-PAGE sample buffer and boiled before fractionation on 9% gel. Proteins were transferred onto PVDF membranes and after blocking, incubated with affinity-purified rabbit anti-HPV16 polyclonal antibody. Secondary donkey anti-rabbit horseradish peroxidase-coupled antibody was used for detection of HPV16 capsid proteins. (B) HaCaT cells grown on coverslips were incubated with HPV16 PsVs for one hour at 37° C. to initiate virus binding (and partial internalization) before adding 1 μM polyR and further incubated for seven hours. After the incubation, cells were fixed and stained for HPV16 and endogenous CD63, using primary anti-HPV16 rabbit polyclonal and anti-CD63 mouse monoclonal antibodies (Santa Cruz Biotechnology, Inc., Dallas, Tex.). […]

authentic HPV16 virions = assay: Authentic HPV16 virion infection of HaCaT cells, RT-qPCR of spliced E1^E4 mRNA; type: cell-based; conditions: 0.5 μM, 100 vge/cell, three days post-infection
Method: FIG. 10. PolyR inhibits activity of authentic HPV16 virions. HaCaT cells were infected with authentic HPV16 virions (100 vge/cell) in the presence or absence of 500 nM polyR. At three days post-infection, total RNA was extracted from cells using TRIzol reagent (Invitrogen, Thermo Fisher Scientific, Inc., Carlsbad, Calif.). Equal amount of the RNA of polyR-treated and untreated cells was subjected to reverse transcription. Each RT reaction was divided into three qPCR amplifications of 45 cycles targeting the spliced transcripts of cellular β-actin or HPV16 cDNAs. Primers E7.4A and E4B target an amplimer derived from spliced E1^E4 RNA, as previously described (Patterson et al., 2005. J Virol 79:6838-6847).
To validate the effect of polyR was not simply related to pseudovirus infections, HaCaT cells were infected with authentic HPV16 virions carrying viral genomes (100 vge/cell) in the presence or absence of 0.5 μM polyR. At three days post-infection, the cells were harvested and total RNA was extracted using TRIzol reagent (Invitrogen, Thermo Fisher Scientific, Inc., Carlsbad, Calif.). Nucleic acid concentrations were determined by optical density measurements. […] Quantification of cDNA derived from the spliced viral E1^E4 mRNA via qPCR was analyzed in triplicate samples from multiple separate experimental infections.

HPV16 PsVs [2] = assay: Mouse cervicovaginal HPV16 PsV infection model (luciferase in vivo imaging); design: species or system BALB/c mice; conditions: 2 μM in 3% CMC, intravaginal, cytobrush abrasion, imaging 48 h after PsV, n=3
From the text: FIG. 11. PolyR inhibits HPV16 infectivity in vivo. (A). Six-week-old to eight-week-old female BALB/c mice were exposed to HPV16 PsVs transducing Luciferase (5×10^8 infection units (IU)/animal). (B). Percent of in vivo infectivity represents % of infection calculated from luciferase readouts from panel A. Error bars represents SD n=3. Luciferase raw data (average radiance photons/s/cm^2) of polyR-untreated mice is considered as 100%.
Until recently, in vivo animal studies on infectivity of HPV were problematic, because productive papillomavirus infection is species-restricted and tissue-restricted, and traditional models use animal papillomaviruses in closely related or native host species. However, a recently developed mouse model of cervicovaginal infection using HPV16 PsVs has overcome such restrictions (Roberts et al., 2007. Nature Medicine 13:857-861). In the original study, 3% carboxymethylcellulose (CMC) was used to mimic the viscosity of a typical vaginal gel and determined that disruption of genital epithelium by chemical (Nonoxynol-9) or mechanical (using cytobrush) injury is crucial for efficient HPV PsV infection. Nonoxynol-9 (N-9) is a highly toxic strong non-ionic detergent that disturbs the normal architecture of animal and human genital epithelium. […] The average radiance per mouse was measured in photons/s/cm^2/sr for a set region (of equal dimensions) among mice.

With poly-L-arginine [polyR] the “co-localization of HPV16 and CD63” value (HPV16 PsVs [1]) was “significantly increased co-localization of HPV16 and CD63”, the “inhibition of HPV16 infection (RT-qPCR)” value (authentic HPV16 virions) was ~90% and the “reduction of infection in vivo” value (HPV16 PsVs [2]) was 50%.
